“Also recorded” adds a separate entry of the source.

Assay [1] deals with A2780 cells. The experiment in a line: 5-day MTT cytotoxic assay, combination of VAL-083 with non-DNA targeting agents (p53 modulators). In kind it is cell-based. Particulars: for superadditivity / synergy in combination with VAL-083 (in words): A2780 (wild-type p53), 5-day MTT, agent combined with VAL-083, FIGS. 3-5. From the text:
Additive effect of [drug A+drug B]=FaA+(1−FaA)FaB
where FaA or FaB=fraction of cells affected (Fa) by drug A or B alone. Data, where appropriate, are provided as Mean±SE of N=3 or greater.

Assay [2] relates to p53-dependent response in A2780. The experiment in a line: Immunoblots 24 hr after drug exposure, p53-dependent response. In kind it is cell-based. The following applies: A2780, in combination with VAL-083 (DAG), FIGS. 6A and 6B. The protocol: For Western blotting, cells were lysed in EBC buffer (50 mM Tris-HCl, pH 8.0, 120 mM NaCl, 1% NP-40, and 1 mM EDTA) supplemented with phosphatase inhibitor and protease inhibitor. Cellular proteins were separated by SDS-PAGE and transferred onto PVDF membrane. After incubation with blocking buffer for 1 h, the membranes were incubated with designated primary antibodies overnight at 4° C. Then, Membranes were washed three times for 10 min and incubated with horseradish peroxidase-conjugated anti-mouse or anti-rabbit antibodies for 1-2 h. Membranes were washed with TBST three times and developed with ECL system (Pierce) according to the manufacturer's instruction.

For assay [3], the system named is A2780 cells with BRCA1 knockdown. The experiment in a line: 5-day MTT cytotoxicity, VAL-083 and/or PARP inhibitor, BRCA1-siRNA treated cells. Particulars: A2780, BRCA1 siRNA vs control siRNA, based on inspection of Fa data.
Procedure: (§1) Cytotoxicity was determined by MTT assay using the standard 5-day drug exposure protocol.
(§2) Ovarian A2780 tumor cells were treated with control or BRCA1 siRNA in 6-well plates and 24 hr later were washed, typsinized and aliquoted to 96-well plates. […] After 5 days, the cells are processed for the MTT assay.
The subject of assay [4] is Ovarian A2780 tumor cells. The assay is described as follows: 5-day MTT cytotoxicity, VAL-083 and/or PARP inhibitor, control siRNA cells (no BRCA1 kd). Particulars: A2780, in combination with dianhydrogalactitol (VAL-083). Format: cell-based.
Procedure: as §1, §2
For assay [5], the system named is ovarian cancer cell lines (A2780, A2780 p53-/-, 2780CP, OVCAR10, HEY, OVCA-433). The following applies: wild type p53, p53 knocked out and mutant p53 lines; previously shown; cited from earlier work.

`COc1ccc(C2=N[C@@H](c3ccc(Cl)cc3)[C@@H](c3ccc(Cl)cc3)N2C(=O)N2CCNC(=O)C2)c(OC(C)C)c1` [nutlin-3a, 4-[[(4S,5R)-4,5-Bis(4-chlorophenyl)-2-(2-isopropoxy-4-methoxyphenyl)-4,5-dihydroimidazol-1-yl]carbonyl]piperazin-2-one]: in assay [1], the “superadditivity / synergy in combination with VAL-083 (in words)” value (“superadditivity / synergy in combination” for short) is on record as “substantial superadditivity and/or synergy; also recorded: augmented the activity of dianhydrogalactitol”. The combination index in assay [1] (A2780, nutlin-3a with VAL-083, range over ED75-ED95 (Table 3)) is recorded as 0.10-0.15. In addition, in assay [2], the “upregulation of p53-dependent response (in words)” value is recorded as “synergistic upregulation of p53-dependent response”.

Consider `Cc1ncc(Cl)cc1NCc1ccc(C(=O)N[C@@H](CC2CCCC2)C(=O)NC2CC2)s1` [GSK2830371, (S)-5-(((5-Chloro-2-methylpyridin-3-yl)amino)methyl)-N-(3-cyclopentyl-1-(cyclopropylamino)-1-oxopropan-2-yl)thiophene-2-carboxamide], for which the “superadditivity / synergy in combination” value in assay [1] is reported as “substantial superadditivity and/or synergy”. The “upregulation of p53-dependent response (in words)” value in assay [2] is given as “synergistic upregulation of p53-dependent response”.

Consider `C=CCn1c(=O)c2cnc(Nc3ccc(N4CCN(C)CC4)cc3)nc2n1-c1cccc(C(C)(C)O)n1` [MK1775], for which the “superadditivity / synergy in combination” value in assay [1] is “did not result in superadditive activity”.

Turning to `CNCc1ccc(-c2[nH]c3cc(F)cc4c3c2CCNC4=O)cc1` [Rucaparib, rucaparib], in assay [3], the “increase in cellular sensitivity by BRCA1 knockdown (kd)” value is ~3.0 fold.

With `Nc1cc(C(F)(F)F)c(-c2cc(N3CCOCC3)nc(N3CCOCC3)n2)cn1` [BKM120], the “superadditivity / synergy in combination” value in assay [1] is on record as “did not result in superadditive activity”.

For the compound `Cc1sc2c(c1C)C(c1ccc(Cl)cc1)=N[C@@H](CC(=O)OC(C)(C)C)c1nnc(C)n1-2` [JQ1], in assay [1], the “superadditivity / synergy in combination” value is recorded as “did not result in superadditive activity”.

`O=C(c1cc(Cc2n[nH]c(=O)c3ccccc23)ccc1F)N1CCN(C(=O)C2CC2)CC1` [Olaparib, olaparib]: the “superadditivity of PARP inhibitor combined with VAL-083 (in words)” value in assay [4] is on record as “super-additivity”.

For the compound `O[C@H]([C@H](O)[C@@H]1CO1)[C@H]1CO1` [VAL-083, dianhydrogalactitol], in assay [5], the “activity in ovarian cancer cell lines (in words)” value is on record as “active in all cell lines tested”.

As to `C[C@]1(c2nc3c(C(N)=O)cccc3[nH]2)CCCN1` [Veliparib, veliparib], the “superadditivity of PARP inhibitor combined with VAL-083 (in words)” value in assay [4] was “not as effective”.

The record behind these values is patent publication US20200061054A1, “USE OF DIANHYDROGALACTITOL OR ANALOGS AND DERIVATIVES IN COMBINATION WITH A P53 MODULATOR OR A PARP INHIBITOR” (Del Mar Pharmaceuticals (BC) Ltd., priority 2017, published 2020).
